Experimental data reported in patent US12263171B2, “7-, 8-, and 10-substituted amino triazolo quinazoline derivatives as adenosine receptor antagonists, pharmaceutical compositions and their use” (Merck Sharp & Dohme LLC, priority 2018, dated 2025).

Experiments:
[1] = target: human A2b adenosine receptor (Homo sapiens (Human), UniProt P29275); experiment: A2b radioligand filtration binding assay (tritiated proprietary A2b antagonist, HEK293 membranes); conditions: for IC50: unstarred values: radioligand binding
Description: Measurement of A2b Binding Affinity
The reported affinity of the compounds of the invention for the human A2b adenosine receptor was determined experimentally using a radioligand filtration binding assay. This assay measures the amount of binding of a tritiated proprietary A2b receptor antagonist, in the presence and absence of a compound of the invention, to membranes made from HEK293 cells recombinantly expressing the human A2b adenosine receptor (Perkin Elmer, Cat. No. ES-013-C).
The filter plate was incubated for at least 1 hour at 55° C. and allowed to dry. The bottom of the filter plate was then sealed with backing tape. […] The plates were then incubated for at least 20 minutes, and then the amount of radioactivity remaining in each well was determined using a TopCount® (Perkin Elmer) scintillation counter. After normalization to total and non-specific binding, the percent effect at each compound concentration was calculated. The plot of percent effect versus the log of compound concentration was analyzed electronically using a 4-parameter logistic fit based on the Levenberg-Marquardt algorithm to generate IC50 values.

[2] = target: human A2a adenosine receptor (Homo sapiens (Human), UniProt P29274); experiment: A2a receptor affinity radioligand binding assay ([3H] SCH58261, membranes from HEK293 or CHO cells); conditions: unstarred values: radioligand binding
Description: The A2a receptor affinity binding assay measured the amount of binding of a tritiated ligand with high affinity for the A2a adenosine receptor to membranes made from HEK293 or CHO cells recombinantly expressing the human A2a adenosine receptor, in the presence of varying concentrations of a compound of the invention.
Measurement of A2a Binding Affinity Using Radioligand Binding
148 μL, (5 μg/mL) membranes (Perkin Elmer, Cat. No. RBHA2aM4001A) and 2 μL compounds of the invention to be tested (test compound) were transferred to individual wells of a 96-well polypropylene assay plate and incubated for 15 to 30 minutes at room temperature. [^3H] SCH58261 ((7-(2-phenylethyl)-5-amino-2-(2-furyl)-pyrazolo-[4,3-e]-1,2,4-triazolo[1,5-c]pyrimidine)) was diluted in assay buffer (50 mM Tris pH 7.4, 10 mM MgCl2, 0.005% Tween20) to a concentration of 4 nM and 50 μL transferred to each well of the assay plate. […] The assay plate was incubated at room temperature for 60 minutes with agitation. […] Filtering was achieved by aspirating the contents of the assay plate for 5 seconds, then washing and aspirating the contents three times with ice-cooled wash buffer (50 mM Tris-HCl pH 7.4, 150 mM NaCl) and allowing the vacuum manifold to dry the plate for 30 seconds. The filter plate was incubated for at least 1 hour at 55° C. and allowed to dry. The bottom of the filter plate was sealed with backing tape. 40 μL. […] The plate was incubated for at least 20 minutes, and then the amount of radioactivity remaining in each well was determined using a TopCown® (Perkin Elmer) scintillation counter. After normalization to total and non-specific binding, the percent effect at each compound concentration was calculated. The plot of percent effect versus the log of compound concentration was analyzed electronically using a 4-parameter logistic fit based on the Levenberg-Marquardt algorithm to generate IC50 values.

Chain of human A2b adenosine receptor (P29275 whole entry): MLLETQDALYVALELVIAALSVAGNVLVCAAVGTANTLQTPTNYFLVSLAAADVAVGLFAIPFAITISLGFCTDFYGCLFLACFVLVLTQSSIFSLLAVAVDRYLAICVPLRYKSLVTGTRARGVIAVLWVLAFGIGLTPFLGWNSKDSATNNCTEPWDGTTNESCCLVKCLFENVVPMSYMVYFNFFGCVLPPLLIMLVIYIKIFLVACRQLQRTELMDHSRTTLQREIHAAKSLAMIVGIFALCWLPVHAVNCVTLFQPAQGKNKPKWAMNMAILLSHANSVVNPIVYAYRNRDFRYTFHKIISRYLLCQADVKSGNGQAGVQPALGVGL
Chain of human A2a adenosine receptor (P29274 whole entry): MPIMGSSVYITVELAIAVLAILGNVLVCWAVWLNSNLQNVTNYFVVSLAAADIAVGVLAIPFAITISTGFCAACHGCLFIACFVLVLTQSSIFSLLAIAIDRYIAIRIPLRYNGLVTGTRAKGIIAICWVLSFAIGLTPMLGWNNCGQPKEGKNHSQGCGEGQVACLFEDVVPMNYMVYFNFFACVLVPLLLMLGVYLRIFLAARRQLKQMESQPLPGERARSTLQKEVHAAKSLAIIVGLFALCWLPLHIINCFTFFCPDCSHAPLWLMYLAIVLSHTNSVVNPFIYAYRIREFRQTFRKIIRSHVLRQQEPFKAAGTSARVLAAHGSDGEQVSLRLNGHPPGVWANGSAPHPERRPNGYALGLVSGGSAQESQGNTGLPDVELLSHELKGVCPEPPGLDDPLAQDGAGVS

COc1ccc2c(c1)nc(N)n1nc([C@@H]3CCCN(c4cnn([C@@H](C)C(C)(C)O)c4)C3)nc21 [Example 185B, (S)-3-(4-((R)-3-(5-amino-8-methoxy-[1,2,4]triazolo[1,5-c]quinazolin-2-yl)piperidin-1-yl)-1H-pyrazol-1-yl)-2-methylbutan-2-ol] was tested, and the IC50 [1] was 116 nM and the IC50 [2] was 1 nM.

In the case of COc1ccc2c(c1)nc(N)n1nc([C@@H]3CCCN(c4cnn(CC(F)(F)F)c4)C3)nc21 [Example 178, (R)-8-methoxy-2-(1-(1-(2,2,2-trifluoroethyl)-1H-pyrazol-4-yl)piperidin-3-yl)-[1,2,4]triazolo[1,5-c]quinazolin-5-amine], the IC50 [1] is reported as 2.5 nM and the IC50 [2] is reported as 2.1 nM.

With COc1cccc2c1nc(N)n1nc(C3CC(F)CN(c4cnn(CC(C)(C)O)c4)C3)nc21 (stereo not shown) [Example 149] the “A2B binding % inh. @ 10000 nM” value ([1]; @ 10000 nM, unstarred) was 32% inh. @ 10000 nM and the IC50 [2] was 200 nM.

Compound COc1cccc2c1nc(N)n1nc([C@@H]3CCCN(c4nnc5n4CCNC5)C3)nc21 [Example 71, (R)-7-methoxy-2-(1-(5,6,7,8-tetrahydro-[1,2,4]triazolo[4,3-a]pyrazin-3-yl)piperidin-3-yl)-[1,2,4]triazolo[1,5-c]quinazolin-5-amine] has an IC50 [1] of 5610 nM and an IC50 [2] of 0.2 nM.

Work on C[C@H]1CC[C@@H](c2nc3c4ccc(Br)cc4nc(N)n3n2)CN1c1cnn(CC(C)(C)O)c1 (single isomer, unassigned) [Example 198, 1-(4-((2S,5R or 2R,5S)-5-(5-amino-8-bromo-[1,2,4]triazolo[1,5-c]quinazolin-2-yl)-2-methylpiperidin-1-yl)-4H-pyrazol-1-yl)-2-methylpropan-2-ol] yielded an IC50 [1] of 8.4 nM and an IC50 [2] of 0.4 nM.

Compound COc1ccc2c(c1)nc(N)n1nc([C@@H]3CCCN(c4cnn([C@@H]5CCC[C@H]5O)c4)C3)nc21 [Example 187A, (1R,2R)-2-(4-((R)-3-(5-amino-8-methoxy-[1,2,4]triazolo[1,5-c]quinazolin-2-yl)piperidin-1-yl)-1H-pyrazol-1-yl)cyclopentan-1-ol] has an IC50 [1] of 1290 nM and an IC50 [2] of 2.8 nM.

COc1cccc2c1nc(N)n1nc([C@@H]3CCCN(c4cnn(C(C)C(C)(C)O)c4)C3)nc21 (single isomer, unassigned) [Example 61A] was tested, and the IC50 [1] was 45.2 nM and the IC50 [2] was 0.2 nM.

COc1cccc2c1nc(N)n1nc([C@@H]3CC[C@H](C)N(c4cnn(C(C)C(C)(C)O)c4)C3)nc21 (single isomer, unassigned) [Example 147C] showed an IC50 [1] of 779 nM and an IC50 [2] of 3.9 nM.

In the case of COc1cccc2c1nc(N)n1nc([C@@H]3CCCN(c4cc(C)n(C)n4)C3)nc21 [Example 74, (R)-2-(1-(1,5-dimethyl-1H-pyrazol-3-yl)piperidin-3-yl)-7-methoxy-[1,2,4]triazolol[1,5-c]quinazolin-5-amine], the IC50 [1] is reported as 3.1 nM and the IC50 [2] is reported as 1 nM.

For CNC(=O)C(C)(C)n1cc(N2CCC[C@@H](c3nc4c5cccc(OC)c5nc(N)n4n3)C2)cn1 [Example 26, (R)-2-(4-(3-(5-annino-7-methoxy-[1,2,4]triazolo[1,5-c]quinazolin-2-yl)piperidin-1-yl)-1H-pyrazol-1-yl)-N,2-dimethylpropanamide], the IC50 [1] was 2 nM and the IC50 [2] was 3.5 nM.

Compound COc1ccc2c(c1)nc(N)n1nc([C@H]3CC[C@@H](C)N(c4cnn([C@@H](C)C(C)(C)O)c4)C3)nc21 [Example 212A] has an IC50 [1] of 5480 nM and an IC50 [2] of 221 nM.

For COc1cccc2c1nc(N)n1nc([C@@H]3CCCN(c4cnn(C5CCS(=O)(=O)CC5)c4)C3)nc21 [Example 122, (R)-4-(4-(3-(5-amino-7-methoxy-[1,2,4]triazolo[1,5-c]quinazolin-2-yl)piperidin-1-yl)-1H-pyrazol-1-yl)tetrahydro-2H-thiopyran 1,1-dioxide], the IC50 [1] was 58.4 nM and the IC50 [2] was 0.1 nM.

Work on COc1cccc2c1nc(N)n1nc([C@@H]3CCCN(c4cnn([C@H]5CCCC[C@]5(C)O)c4)C3)nc21 [Example 43, (1S,2S)-2-(4-((R)-3-(5-amino-7-methoxy-[1,2,4]triazolo[1,5-c]quinazolin-2-yl)piperidin-1-yl)-1H-pyrazol-1-yl)-1-methylcyclohexan-1-ol] yielded an IC50 [1] of 1.9 nM and an IC50 [2] of 0.5 nM.

Compound COc1cccc2c1nc(N)n1nc([C@@H]3CCC[C@](O)(c4cnn(CC(C)(C)O)c4)C3)nc21 (single isomer, unassigned) [Example 135, (1R, 3R or 1S,3S)-3-(5-amino-7-methoxy-[1,2,4]triazolo[1,5-c]quinazolin-2-yl)-1-(1-(2-hydroxy-2-methylpropyl)-1H-pyrazol-4-yl)cyclohexan-1-ol] has an IC50 [1] of 168 nM and an IC50 [2] of 1.3 nM.

COc1ccc2c(c1)nc(N)n1nc([C@@H]3CCCN(c4ncn(CC(C)(C)O)n4)C3)nc21 [Example 194, (R)-1-(3-(3-(5-amino-8-methoxy-[1,2,4]triazolo[1,5-c]quinazolin-2-yl)piperidin-1-yl)-1H-1,2,4-triazol-1-yl)-2-methylpropan-2-ol] gave an IC50 [1] of 528 nM and an IC50 [2] of 6.7 nM.

COc1cccc2c1nc(N)n1nc([C@@H]3CCCN(c4ncn(CC(C)(C)O)n4)C3)nc21 [Example 64, (R)-1-(3-(3-(5-amino-7-methoxy[1,2,4]triazolo[1,5-c]quinazolin-2-yl)piperidin-1-yl)-1H-1,2,4-triazol-1-yl)-2-methylpropan-2-ol] gave an IC50 [1] of 374 nM and an IC50 [2] of 0.1 nM.

COc1cccc2c1nc(N)n1nc([C@@H]3CCCN(c4ccc(=O)n(C(C)C)c4)C3)nc21 [Example 96, (R)-5-(3-(5-amino-7-methoxy-[1,2,4]triazolo[1,5-c]quinazolin-2-yl)piperidin-1-yl)-1-isopropylpyridin-2(1H)-one] gave an IC50 [1] of 291 nM and an IC50 [2] of 0.6 nM.

COc1cccc2c1nc(N)n1nc([C@@H]3CCCN(c4cnn(C)c4)C3)nc21 [Example 17, (R)-7-methoxy-2-(1-(1-methyl-1H-pyrazol-4-yl)piperidin-3-yl)-[1,2,4]triazolo[1,5-c]quinazolin-5-amine] showed an IC50 [1] of 24.7 nM and an IC50 [2] of 1 nM.

Compound COc1ccc2c(c1)nc(N)n1nc([C@@H]3C[C@@H](C)CN(c4cnn(CC(C)(C)O)c4)C3)nc21 [Example 195B] has an IC50 [1] of 9690 nM and an IC50 [2] of 1.7 nM.

Compound COc1cccc2c1nc(N)n1nc([C@@H]3CCCN(c4cnc(OC(F)F)c(C)c4)C3)nc21 [Example 100, (R)-2-(1-(6-(difluoromethoxy)-5-methylpyridin-3-yl)piperidin-3-yl)-7-methoxy-[1,2,4]-triazolo[1,5-c]quinazolin-5-amine] has an IC50 [1] of 56.8 nM and an IC50 [2] of 0.7 nM.

COc1cccc2c1nc(N)n1nc([C@@H]3CCCN(c4cncc(C)n4)C3)nc21 [Example 103, (R)-7-methoxy-2-(1-(6-methylpyrazin-2-yl)piperidin-3-yl)-[1,2,4]triazolo[1,5-c]quinazolin-5-amine] gave an IC50 [1] of 159 nM and an IC50 [2] of 1.2 nM.

COc1ccc2c(c1)nc(N)n1nc([C@@H]3CCCN(c4ccc(OC(F)F)nc4)C3)nc21 [Example 191, (R)-2-(-(6-(difluoromethoxy)pyridin-3-yl)piperidin-3-yl)-8-methoxy-[1,2,4]triazolo[1,5-c]quinazolin-5-amine] showed an IC50 [1] of 18.4 nM and an IC50 [2] of 2.5 nM.

COc1cccc2c1nc(N)n1nc([C@@H]3CCCN(c4cnn(C5CCC5O)c4)C3)nc21 (single isomer, unassigned) [Example 60A] gave an IC50 [1] of 281 nM and an IC50 [2] of 1.8 nM.

With COc1cccc2c1nc(N)n1nc([C@@H]3CCCN(c4cnn(C(C)(C)C(=O)NC5CCC5)c4)C3)nc21 [Example 37, (R)-2-(4-(3-(5-amino-7-methoxy-[1,2,4]triazolo[1,5-c]quinazolin-2-yl)piperidin-1-yl)-1H-pyrazol-1-yl)-N-cyclobutyl-2-methylpropanamide] the IC50 [1] was 10.7 nM and the IC50 [2] was 1.5 nM.

COc1cccc2c1nc(N)n1nc([C@@H]3CCCN(c4cn(C)cn4)C3)nc21 [Example 76, (R)-7-methoxy-2-(1-(1-methyl-1H-imidazol-4-yl)piperidin-3-yl)-[1,2,4]triazolo[1,5-c]quinazolin-5-amine] showed an IC50 [1] of 1780 nM and an IC50 [2] of 3.6 nM.

In the case of C[C@H]1CC[C@@H](c2nc3c4ccc(C5CC5)cc4nc(N)n3n2)CN1c1cnn(CC(C)(C)O)c1 (single isomer, unassigned) [Example 205, 1-(4-((2S, 5R or 2R,5S)-5-(5-amino-8-cyclopropyl-[1,2,4]triazolo[1,5-c]quinazolin-2-yl)-2-methylpiperidin-1-yl)-1H-pyrazol-1-yl)-2-methylpropan-2-ol], the IC50 [1] is reported as 5.5 nM and the IC50 [2] is reported as 0.4 nM.
